Columns and labels:
[1] = molecular target: T1, hEP4 (Homo sapiens, UniProt P35408); assay: Functional data, human recombinant EP4 receptor stable transfectants; format: cell-based
T1 construct: expressed in transfected cells
Protocol: (§1) Human Recombinant EP1, EP2, EP3, EP4, FP, TP, IP and DP Receptors: Stable Transfectants
(§2) Plasmids encoding the human EP1, EP2, EP3, EP4, FP, TP, IP and DP receptors were prepared by cloning the respective coding sequences into the eukaryotic expression vector pCEP4 (Invitrogen). The pCEP4 vector contains an Epstein Barr virus (EBV) origin of replication, which permits episomal replication in primate cell lines expressing EBV nuclear antigen (EBNA-1). It also contains a hygromycin resistance gene that is used for eukaryotic selection. […] HEK-293 cells were grown in DMEM with 10% fetal bovine serum (FBS), 250 μg ml^−1 G418 (Life Technologies) and 200 μg ml^−1 gentamicin or penicillin/streptomycin.
(§3) For transfection, the cells were grown to 50-60% confluency on 10 cm plates. The plasmid pCEP4 incorporating cDNA inserts for the respective human prostanoid receptor (20 μg) was added to 500 μl of 250 mM CaCl2. […] After 30 min, 9 ml DMEM were added to the mixture. The DNA/DMEM/calcium phosphate mixture was then added to the cells, which had been previously rinsed with 10 ml PBS. The cells were then incubated for 5 hr at 37° C. in humidified 95% air/5% CO2. The calcium phosphate solution was then removed and the cells were treated with 10% glycerol in DMEM for 2 min. The glycerol solution was then replaced by DMEM with 10% FBS. The cells were incubated overnight and the medium was replaced by DMEM/10% FBS containing 250 μg ml^−1 G418 and penicillin/streptomycin. The following day hygromycin B was added to a final concentration of 200 μg ml^−1.
(§4) Ten days after transfection, hygromycin B resistant clones were individually selected and transferred to a separate well on a 24 well plate. At confluence each clone was transferred to one well of a 6 well plate, and then expanded in a 10 cm dish. Cells were maintained under continuous hygromycin selection until use.

[2] = molecular target: T2, hEP3A (Homo sapiens, UniProt P43115); assay: Functional data, human recombinant EP3A receptor stable transfectants; format: cell-based
T2 construct: expressed in transfected cells
T2 sequence (P43115 1-390): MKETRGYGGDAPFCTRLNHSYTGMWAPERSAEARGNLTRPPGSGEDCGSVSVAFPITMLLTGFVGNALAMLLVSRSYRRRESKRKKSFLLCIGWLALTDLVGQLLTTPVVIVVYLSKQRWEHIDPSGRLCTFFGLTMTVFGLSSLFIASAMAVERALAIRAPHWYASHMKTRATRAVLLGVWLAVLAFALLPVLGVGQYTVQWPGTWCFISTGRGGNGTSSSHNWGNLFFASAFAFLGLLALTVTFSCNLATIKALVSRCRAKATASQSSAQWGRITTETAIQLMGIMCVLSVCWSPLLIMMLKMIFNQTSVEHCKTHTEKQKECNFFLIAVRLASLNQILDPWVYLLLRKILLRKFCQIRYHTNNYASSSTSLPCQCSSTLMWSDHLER
Protocol: as §1, §2, §3, §4

[3] = molecular target: T3, hEP3D (Homo sapiens, UniProt P43115); assay: Radioligand binding, hEP3D; details: [3H]PGE2 competition
T3 construct: expressed in transfected cells; host or cells: COS-7, transient transfection, plasma membrane fraction
T3 sequence (P43115 1-374 isoform P43115-4): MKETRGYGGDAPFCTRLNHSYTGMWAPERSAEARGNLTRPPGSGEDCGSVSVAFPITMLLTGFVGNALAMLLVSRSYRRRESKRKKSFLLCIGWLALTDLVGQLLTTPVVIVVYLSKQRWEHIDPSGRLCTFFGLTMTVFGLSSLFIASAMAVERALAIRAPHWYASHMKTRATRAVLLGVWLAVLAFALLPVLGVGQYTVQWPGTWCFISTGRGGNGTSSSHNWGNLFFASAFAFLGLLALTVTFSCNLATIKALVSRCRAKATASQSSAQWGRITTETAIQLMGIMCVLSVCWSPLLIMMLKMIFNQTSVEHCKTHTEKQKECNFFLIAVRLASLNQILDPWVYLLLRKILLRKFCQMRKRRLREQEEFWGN
Protocol: For radioligand binding on the transient transfectants, plasma membrane fraction preparation was as follows. COS-7 cells were washed with TME buffer, scraped from the bottom of the flasks, and homogenized for 30 sec using a Brinkman PT 10/35 polytron. TME buffer was added to achieve a final 40 ml volume in the centrifuge tubes. The composition of TME is […]; 10N HCl is added to achieve a pH of 7.4.
The cell homogenate was centrifuged at 19000 rpm for 20 min at 4° C. using a Beckman Ti-60 rotor. The resultant pellet was resuspended in TME buffer to give a final 1 mg/ml protein concentration, as determined by Biorad assay. Radioligand binding assays were performed in a 200 μl volume.
The binding of [^3H] PGE2 (specific activity 165 […]) at EP3D, receptors and [^3H]-SQ29548 (specific activity 41.5 Ci mmol^−1) at TP receptors were determined in duplicate in at least three separate experiments. Radiolabeled PGE2 was purchased from Amersham, radiolabeled SQ29548 was purchased from New England Nuclear. […] Competition studies were performed using a final concentration of 2.5 or 5 nM [^3H]-PGE2, or 10 nM [^3H]-SQ 29548 and non-specific binding determined with 10 μM of the respective unlabeled prostanoid. […]

[4] = molecular target: T4, hTP (Homo sapiens, UniProt P21731); assay: Functional data, human recombinant TP receptor stable transfectants; format: cell-based
T4 construct: expressed in transfected cells
T4 sequence (P21731 1-343): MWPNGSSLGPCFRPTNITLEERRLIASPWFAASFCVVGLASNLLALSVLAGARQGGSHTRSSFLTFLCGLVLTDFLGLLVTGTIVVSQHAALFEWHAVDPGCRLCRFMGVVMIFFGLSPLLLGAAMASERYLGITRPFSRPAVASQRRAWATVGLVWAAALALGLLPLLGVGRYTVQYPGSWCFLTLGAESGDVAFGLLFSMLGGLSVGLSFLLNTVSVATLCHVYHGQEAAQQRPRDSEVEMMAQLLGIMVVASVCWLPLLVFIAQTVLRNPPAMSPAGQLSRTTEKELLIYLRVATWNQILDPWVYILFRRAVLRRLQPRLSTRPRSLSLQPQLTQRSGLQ
Protocol: as §1
(§5) Plasmids encoding the human EP1, EP2, EP3, EP4, FP, TP, IP and DP receptors were prepared by cloning the respective coding sequences into the eukaryotic expression vector pCEP4 (Invitrogen). The pCEP4 vector contains an Epstein Barr virus (EBV) origin of replication, which permits episomal replication in primate cell lines expressing EBV nuclear antigen (EBNA-1). It also contains a hygromycin resistance gene that is used for eukaryotic selection. The cells employed for stable transfection were human embryonic kidney cells (HEK-293) that were transfected with and express the EBNA-1 protein. These HEK-293-EBNA cells (Invitrogen) were grown in medium containing Geneticin (G418) to maintain expression of the EBNA-1 protein. HEK-293 cells were grown in DMEM with 10% fetal bovine serum (FBS), 250 μg ml^−1 G418 (Life Technologies) and 200 μg ml^−1 gentamicin or penicillin/streptomycin.
(§6) For transfection, the cells were grown to 50-60% confluency on 10 cm plates. The plasmid pCEP4 incorporating cDNA inserts for the respective human prostanoid receptor (20 μg) was added to 500 μl of 250 mM CaCl2. HEPES buffered saline×2 (2×HBS, 280 mM NaCl, 20 mM HEPES acid, 1.5 mM Na2 HPO4, pH 7.05-7.12) was then added dropwise to a total of 500 μl, with continuous vortexing at room temperature. After 30 min, 9 ml DMEM were added to the mixture. The DNA/DMEM/calcium phosphate mixture was then added to the cells, which had been previously rinsed with 10 ml PBS. The cells were then incubated for 5 hr at 37° C. in humidified 95% air/5% CO2. The calcium phosphate solution was then removed and the cells were treated with 10% glycerol in DMEM for 2 min. The glycerol solution was then replaced by DMEM with 10% FBS. The cells were incubated overnight and the medium was replaced by DMEM/10% FBS containing 250 μg ml^−1 G418 and penicillin/streptomycin. The following day hygromycin B was added to a final concentration of 200 μg ml^−1.
as §4

[5] = molecular target: T1, hEP4; assay: Radioligand binding, hEP4; details: [3H]PGE2 competition
Protocol: as §1, §2, §3, §4
Radioligand binding studies on plasma membrane fractions prepared for cells stably transfected with the cat or human receptor were performed as follows. Cells washed with TME buffer were scraped from the bottom of the flasks and homogenized for 30 sec using a Brinkman PT 10/35 polytron. TME buffer was added as necessary to achieve a 40 ml volume in the centrifuge tubes. TME is comprised of 50 mM TRIS base, 10 mM MgCl2, 1 mM EDTA; pH 7.4 is achieved by adding 1 N HCl. The cell homogenate was centrifuged at 19,000 rpm for 20-25 min at 4° C. using a Beckman Ti-60 or Ti-70 rotor. The pellet was then resuspended in TME buffer to provide a final protein concentration of 1 mg/ml, as determined by Bio-Rad assay. Radioligand binding assays were performed in a 100 μl or 200 μl volume.
The binding of [^3H](N) PGE2 (specific activity 165 Ci/mmol) was determined in duplicate and in at least 3 separate experiments. Incubations were for 60 min at 25° C. and were terminated by the addition of 4 ml of ice-cold 50 mM TRIS-HCl followed by rapid filtration through Whatman GF/B filters and three additional 4 ml washes in a cell harvester (Brandel). Competition studies were performed using a final concentration of 2.5 or 5 nM [^3H](N) PGE2 and non-specific binding was determined with 10^−5 M unlabelled PGE2.

[6] = molecular target: T5, hEP2 (Homo sapiens, UniProt P43116); assay: Radioligand binding, hEP2; details: [3H]PGE2 competition
T5 construct: expressed in transfected cells
Protocol: as §1
as §5, with “HEK-293 cells were grown in DMEM with 10% fetal bovine serum (FBS), 250 μg ml^−1 G418 (Life Technologies) and 200 μg ml^−1 gentamicin or penicillin/streptomycin.” left out
Radioligand binding studies on plasma membrane fractions prepared for cells stably transfected with the cat or human receptor were performed as follows. […] The pellet was then resuspended in TME buffer to provide a final protein concentration of 1 mg/ml, as determined by Bio-Rad assay. […]
The binding of [^3H](N) PGE2 (specific activity 165 Ci/mmol) was determined in duplicate and in at least 3 separate experiments. […] Competition studies were performed using a final concentration of 2.5 or 5 nM [^3H](N) PGE2 and non-specific binding was determined with 10^−5 M unlabelled PGE2.

[7] = molecular target: T6, hEP1 (Homo sapiens, UniProt P34995); assay: Functional data, human recombinant EP1 receptor stable transfectants; format: cell-based
T6 construct: expressed in transfected cells
T6 sequence (P34995 1-402): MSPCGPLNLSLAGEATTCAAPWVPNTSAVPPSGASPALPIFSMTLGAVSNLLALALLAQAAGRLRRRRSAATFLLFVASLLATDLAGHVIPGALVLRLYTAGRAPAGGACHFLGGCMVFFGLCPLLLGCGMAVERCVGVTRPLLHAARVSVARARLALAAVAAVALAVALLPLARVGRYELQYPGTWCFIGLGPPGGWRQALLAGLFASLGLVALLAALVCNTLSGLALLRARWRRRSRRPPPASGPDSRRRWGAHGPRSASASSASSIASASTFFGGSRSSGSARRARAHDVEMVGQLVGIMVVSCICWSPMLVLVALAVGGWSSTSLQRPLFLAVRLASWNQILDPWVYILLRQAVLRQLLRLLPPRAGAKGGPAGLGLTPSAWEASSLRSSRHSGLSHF
Protocol: as §1, §5, §6, §4

[8] = molecular target: T7, hIP (Homo sapiens, UniProt P43119); assay: Functional data, human recombinant IP receptor stable transfectants; format: cell-based
T7 construct: expressed in transfected cells
Protocol: as §1, §5
For transfection, the cells were grown to 50-60% confluency on 10 cm plates. The plasmid pCEP4 incorporating cDNA inserts for the respective human prostanoid receptor (20 μg) was added to 500 μl of 250 mM CaCl2. HEPES buffered saline×2 (2×HBS, 280 mM NaCl, 20 mM HEPES acid, 1.5 mM Na2 HPO4, pH 7.05-7.12) was then added dropwise to a total of 500 μl, with continuous vortexing at room temperature. […]

T1 sequence (P35408 whole entry): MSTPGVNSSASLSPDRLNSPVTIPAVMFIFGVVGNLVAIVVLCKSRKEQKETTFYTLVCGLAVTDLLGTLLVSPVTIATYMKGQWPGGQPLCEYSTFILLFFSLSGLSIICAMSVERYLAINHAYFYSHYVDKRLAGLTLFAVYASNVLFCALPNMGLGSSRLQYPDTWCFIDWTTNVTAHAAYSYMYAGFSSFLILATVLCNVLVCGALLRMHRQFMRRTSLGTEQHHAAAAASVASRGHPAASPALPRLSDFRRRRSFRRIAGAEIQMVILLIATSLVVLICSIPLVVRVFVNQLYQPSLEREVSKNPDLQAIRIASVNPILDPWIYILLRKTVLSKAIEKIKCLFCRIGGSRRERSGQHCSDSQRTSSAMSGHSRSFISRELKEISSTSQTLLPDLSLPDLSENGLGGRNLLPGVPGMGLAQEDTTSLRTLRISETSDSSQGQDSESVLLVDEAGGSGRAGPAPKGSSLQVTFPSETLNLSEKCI
T5 sequence (P43116 whole entry): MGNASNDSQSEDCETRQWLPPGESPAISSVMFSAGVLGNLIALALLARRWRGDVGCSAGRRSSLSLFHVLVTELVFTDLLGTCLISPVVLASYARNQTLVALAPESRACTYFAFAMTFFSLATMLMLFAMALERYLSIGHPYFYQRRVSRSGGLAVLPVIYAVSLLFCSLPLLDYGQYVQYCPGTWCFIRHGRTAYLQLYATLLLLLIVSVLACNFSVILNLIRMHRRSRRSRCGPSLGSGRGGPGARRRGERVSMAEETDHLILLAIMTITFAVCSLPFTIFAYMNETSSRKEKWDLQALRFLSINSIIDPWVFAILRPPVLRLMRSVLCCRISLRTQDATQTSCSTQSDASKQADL
T7 sequence (P43119 whole entry): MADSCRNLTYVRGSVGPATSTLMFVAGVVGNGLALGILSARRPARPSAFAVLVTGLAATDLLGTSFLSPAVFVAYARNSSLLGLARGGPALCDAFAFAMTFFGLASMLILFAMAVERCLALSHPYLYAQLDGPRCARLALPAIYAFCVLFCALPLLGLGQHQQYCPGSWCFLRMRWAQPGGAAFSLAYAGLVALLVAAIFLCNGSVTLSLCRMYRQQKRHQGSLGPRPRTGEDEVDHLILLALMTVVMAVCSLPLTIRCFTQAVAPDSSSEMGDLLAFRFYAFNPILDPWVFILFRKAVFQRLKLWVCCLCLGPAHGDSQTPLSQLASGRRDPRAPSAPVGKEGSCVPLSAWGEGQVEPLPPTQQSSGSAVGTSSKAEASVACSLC

| SMILES | EC50 [1] | hEP3A functional EC50 [2] | IC50 [3] | EC50 [4] | IC50 [5] | IC50 [6] | hEP1 functional EC50 [7] | EC50 [2] | EC50 [8] | EC50 [7] |
| --- | --- | --- | --- | --- | --- | --- | --- | --- | --- | --- |
| O=C(O)CCCCCCN1C(=O)CC[C@@H]1/C=C/C(=O)Cc1ccccc1 [Example 11a, 7-[2S-[3-Oxo-4-(phenyl)-but-1-enyl]-5-oxo-pyrrolidin-1-yl]-heptanoic acid] | 29 nM | hit | 300 nM | > 10000 nM |  |  |  |  |  |  |
| O=C(O)CCCCCCN1C(=O)CC[C@@H]1/C=C/C(O)Cc1cccc(Cl)c1 (stereo partly drawn) [Example 1a, 7-[2S-[3R-Hydroxy-4-(chloro-phenyl)-but-1-enyl]-5-oxo-pyrrolidin-1-yl]-heptanoic acid] | 0.02 nM |  |  | > 10000 nM | 0.4 nM | > 10000 nM | hit | 324 nM |  |  |
| CCOC(=O)CCCCCCN1C(=O)CC[C@@H]1/C=C/C(O)Cc1cccc(C(F)(F)F)c1 (stereo partly drawn) [Example 6a, 7-[2S-[3R-Hydroxy-4-(3-trifluoromethyl-phenyl)-but-1-enyl]-5-oxo-pyrrolidin-1-yl]-heptanoic acid, ethyl ester] | 26 nM |  |  |  | 200 nM |  |  | > 10000 nM | > 10000 nM |  |
| O=C(O)CCCCCCN1C(=O)CC[C@@H]1/C=C/C(=O)Cc1cccc(C(F)(F)F)c1 [Example 7a, 7-[2S-[3-Oxo-4-(trifluormethylphenyl)-but-1-enyl]-5-oxo-pyrrolidin-1-yl]-heptanoic acid] | 86 nM | hit |  |  | 500 nM | > 10000 nM |  |  |  | > 10000 nM |

Reference: US6906097B2, “8-azaprostaglandin analogs as agents for lowering intraocular pressure” (Allergan, Inc., priority 2002, dated 2005)
